Experimental data as given in US5703239A, “Indanylpiperidines as melatonergic agents” (Bristol-Myers Squibb Company, priority 1996, dated 1997).

target: T1, human ML1B receptor (Homo sapiens, UniProt P49286); test: Binding to human melatonergic receptors (2-[125I]-iodomelatonin, NIH 3T3 cell membranes, human ML1B receptor); settings: IC50 class; 200 pM 2-[125I]-iodomelatonin, 37° C., 1 hour, membranes of NIH 3T3 cells transfected with human ML1B receptor; read-out: Melatonin Binding
T1 construct: expressed in transfected cells; host or cells: NIH 3T3 cells (stably transfected; obtained from S. M. Reppert)
T1 sequence (P49286 1-362): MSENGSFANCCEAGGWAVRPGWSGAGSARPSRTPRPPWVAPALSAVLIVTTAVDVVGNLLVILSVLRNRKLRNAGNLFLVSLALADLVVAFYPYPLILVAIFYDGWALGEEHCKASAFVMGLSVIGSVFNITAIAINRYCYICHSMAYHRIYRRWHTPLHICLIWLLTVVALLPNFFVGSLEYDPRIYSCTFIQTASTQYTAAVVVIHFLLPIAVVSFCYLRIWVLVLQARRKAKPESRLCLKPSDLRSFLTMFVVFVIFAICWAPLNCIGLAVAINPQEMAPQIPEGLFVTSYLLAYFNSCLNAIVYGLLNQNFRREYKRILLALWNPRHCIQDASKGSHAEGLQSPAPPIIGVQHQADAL
Procedure: Measurement of Binding to Human Melatonergic Receptors The melatonergic binding affinities of various compounds of Formula I were determined by the method of Reppert, S. M., Weaver, D. R., and Ebisawa, R. (Neuron, Volume 13, 1177-1185, 1994). The assays were incubated at 37° C. for 1 hour, and the reaction was terminated by filtration. The filters were washed with wash buffer. […] The reagents, membrane and other techniques used in the melatonergic binding assays are more fully described below: […] Reagents: (a) 50 mM Tris buffer containing 12.5 mM MgCl2, and 2 mM EDTA, pH 7.4 at 37° C. (b) Wash buffer: 20 mM Tris base containing 2 mM MgCl2. pH 7.4 at room temperature. (c) Melatonin (10^-5 M final concentration). (d) 2-[^125 I]-Iodomelatonin, 200 pM final concentration Source: NEN 2. Membrane preparation: NIH 3T3 cells stably transfected with the human ML1B receptor were obtained from S. M. Reppert and maintained. Cells were pelleted when confluent. The supernatant was discarded and the pellets frozen. For preparing membrane homogenates, the pellets are thawed on ice and resuspended in TME buffer, Tris base, MgCl2, EDTA (pH 7.4 at 37° C.), supplemented with aprotinin, leupeptin, and […]. The cells were then homogenized and centrifuged. The resulting pellet was resuspended with a Dounce homogenizer in TME and frozen. At assay, a small aliquot was thawed on ice and resuspended in TME buffer.

Compound | IC50
CCCCCCCOc1ccc2c(c1)C(C1CCN(C(=O)NCC)CC1)CC2 (stereo not drawn) [N-Ethyl-4-[6-(n-heptyloxy)-indan-1-yl]piperidine-1-carboxamide] | < 10 nM
CCNC(=O)N1CCC(C2CCc3ccc(OC)cc32)CC1 (single isomer, unassigned; (+)) [(+)N-Ethyl-4-(6-methoxy-indan-1-yl)piperidine-1-carboxamide] | 10 to 100 nM
CCCC(=O)N1CCC(C2CCc3ccc(F)cc32)CC1 (stereo not drawn) [1-Butanoyl-4-(6-fluoro-indan-1-yl)piperidine] | < 10 nM
COc1ccc2c(c1)C(C1CCN(C=O)CC1)CC2 (single isomer, unassigned; (-)) [(-)-1-Formyl-4-(6-methoxy-indan-1-yl)piperidine] | < 10 nM
CNC(=O)N1CCC(C2CCc3ccc(OC)cc32)CC1 (single isomer, unassigned; (-)) [(-)-N-Methyl-4-(6-methoxy-indan-1-yl)piperidine-1-carboxamide] | < 10 nM
CC(C)C(=O)N1CCC(C2CCc3ccc(F)cc32)CC1 (stereo not drawn) [4-(6-Fluoro-indan-1-yl)-1-(2-methylpropanoyl)piperidine] | < 10 nM
CCCC(=O)N1CCC(C2CCc3ccc(OC)cc32)CC1 (single isomer, unassigned; (-)) [(-)-1-Butanoyl-4-(6-methoxy-indan-1-yl)piperidine] | < 10 nM
COc1ccc2c(c1)C(C1CCN(C(=O)C(F)(F)F)CC1)CC2 (single isomer, unassigned; (-)) [(-)-4-(6-methoxy-indan-1-yl)-1-(trifluoroacetyl)piperidine] | < 10 nM
COc1ccc2c(c1)C(C1CCN(C(=O)C(F)(F)F)CC1)CC2 (stereo not drawn) [4-(6-methoxy-indan-1-yl)-1-(trifluoroacetyl)piperidine] | < 10 nM
COc1ccc2c(c1)C(C1CCN(C(=O)C3CC3)CC1)CC2 (single isomer, unassigned; (-)) [(-)-1-(Cyclopropylcarbonyl)-4-(6-methoxy-indan-1-yl)piperidine] | < 10 nM
CCNC(=O)N1CCC(C2CCCc3ccc(OC)cc32)CC1 (stereo not drawn) [N-Ethyl-4-(7-methoxy-tetralin-1-yl)piperidine-1-carboxamide] | 10 to 100 nM
CNC(=S)N1CCC(C2CCc3ccc(OC)cc32)CC1 (stereo not drawn) [N-Methyl-4-(6-methoxy-indan-1-yl)-piperidine-1-thiocarboxamide] | < 10 nM
COc1ccc2c(c1)C(C1CCN(C(=O)c3csc(Cl)c3OC)CC1)CC2 (stereo not drawn) [1-[(2-Chloro-3-methoxythien-4-yl)carbonyl]-4-(6-methoxy-indan-1-yl)piperidine] | 10 to 100 nM
CCNC(=O)N1CCC(C2CCc3cc(F)c(OC)cc32)CC1 (stereo not drawn) [N-Ethyl-4-(5-fluoro-6-methoxy-indan-1-yl)piperidine-1-carboxamide] | 10 to 100 nM
CCc1ccc2c(c1)C(C1CCN(C(=O)C(C)C)CC1)CC2 (stereo not drawn) [4-(6-Ethyl-indan-1-yl)-1-(2-methylpropanoyl)piperidine] | < 10 nM
O=C(C1CC1)N1CCC(C2CCc3ccc(OC(F)(F)F)cc32)CC1 (stereo not drawn) [1-(Cyclopropylcarbonyl)-4-[6-(trifluoromethoxy)-indan-1-yl]piperidine] | 10 to 100 nM
COc1cccc(CCCOc2ccc3c(c2)C(C2CCN(C(=O)C4CC4)CC2)CC3)c1 (stereo not drawn) [1-(Cyclopropylcarbonyl)-4-[6-[3-(3-methoxyphenyl)propyloxy]-indan-1-yl]piperidine] | 10 to 100 nM
COc1ccc2c(c1)C(C1CCN(C(=O)c3sccc3C)CC1)CC2 (stereo not drawn) [4-(6-Methoxy-indan-1-yl)-1-[(3-methyl-thien-2-yl)carbonyl]piperidine] | < 10 nM
COc1cc2c(cc1F)CCC2C1CCN(C(=O)C2CC2)CC1 (stereo not drawn) [1-(Cyclopropylcarbonyl)-4-(5-fluoro-6-methoxy-indan-1-yl)piperidine] | < 10 nM
COc1cc2c(cc1F)CCC2C1CCN(C(C)=O)CC1 (stereo not drawn) [1-Acetyl-4-(5-fluoro-6-methoxy-indan-1-yl)piperidine] | < 10 nM
CCC(=O)N1CCC(C2CCc3cc(F)c(OC)cc32)CC1 (stereo not drawn) [4-(5-Fluoro-6-methoxy-indan-1-yl)-1-propanoylpiperidine] | < 10 nM
COc1ccc2c(c1)C(C1CCN(C(=O)C(C)C)CC1)CC2 (single isomer, unassigned; (-)) [(-)-4-(6-Methoxy-indan-1-yl)-1-(2-methyl-propanoyl)piperidine] | < 10 nM
COc1ccc2c(c1)C(C1CCN(C(=O)c3sccc3Cl)CC1)CC2 (stereo not drawn) [1-[(3-Chloro-thien-2-yl)carbonyl]-4-(6-methoxy-indan-1-yl)-piperidine] | < 10 nM
COc1ccc2c(c1)C(C1CCN(C(=O)C3CC3)CC1)CC2 (stereo not drawn) [1-Cyclopropylcarbonyl-4-(6-methoxy-indan-1-yl)piperidine] | < 10 nM
CCNC(=O)N1CCC(C2CCc3ccc(OC)cc32)CC1 (single isomer, unassigned; (-)) [(-)-N-Ethyl-4-(6-methoxy-indan-1-yl)piperidine-1-carboxamide] | < 10 nM
COc1ccc2c(c1)C(C1CCN(C(=O)C(F)(F)F)CC1)CC2 (single isomer, unassigned; (+)) [(+)-4-(6-Methoxy-indan-1-yl)-1-(trifluoroacetyl)piperidine] | 10 to 100 nM

The next lines start with the values.

IC50 | Compound
< 10 nM | COc1ccc2c(c1)C(C1CCN(C(=O)C3CC3)CC1)CC2 (single isomer, unassigned; (+)) [(+)-1-(Cyclopropylcarbonyl)-4-(6-methoxy-indan-1-yl)piperidine]
< 10 nM | COc1ccc2c(c1)C(C1CCN(C(=O)c3ccsc3)CC1)CC2 (stereo not drawn) [4-(6-Methoxy-indan-1-yl)-1-[(3-thienyl)carbonyl]piperidine]
100 to 250 nM | COCC(=O)N1CCC(C2CCc3ccc(OC)cc32)CC1 (single isomer, unassigned; (+)) [(+)-1-(2-Methoxyacetyl)-4-(6-methoxy-indan-1-yl)piperidine]
< 10 nM | COc1ccc2c(c1)C(C1CCN(C(=O)C3=CCCC3)CC1)CC2 (stereo not drawn) [1-[(Cyclopent-1-en-1-yl)carbonyl]-4-(6-methoxy-indan-1-yl)piperidine]
10 to 100 nM | CCNC(=O)N1CCC(C2CCc3ccccc32)CC1 (stereo not drawn) [N-Ethyl-4-(indan-1-yl)-piperidine-1-carboxamide]
< 10 nM | CCc1ccc2c(c1)C(C1CCN(C(=O)C3CC3)CC1)CC2 (stereo not drawn) [1-(Cyclopropylcarbonyl)-4-(6-ethyl-indan-1-yl)piperidine]
< 10 nM | COc1ccc2c(c1)C(C1CCN(C(=O)c3ccc[nH]3)CC1)CC2 (stereo not drawn) [4-(6-Methoxy-indan-1-yl)-1-[(1H-pyrrol-2-yl)carbonyl]piperidine]
10 to 100 nM | CNC(=O)N1CCC(C2CCc3ccc(F)cc32)CC1 (stereo not drawn) [N-Methyl-4-(6-fluoro-indan-1-yl)piperidine-1-carboxamide]
< 10 nM | COc1ccc2c(c1)C(C1CCN(C(=O)c3csnn3)CC1)CC2 (stereo not drawn) [4-(6-Methoxy-indan-1-yl)-1-[(1,2,3-thiadiazol-4-yl)carbonyl]piperidine]
< 10 nM | CCNC(=O)N1CCC(C2CCc3ccc(F)cc32)CC1 (stereo not drawn) [N-Ethyl-4-(6-fluoro-indan-1-yl)piperidine-1-carboxamide]
< 10 nM | CCCC(=O)N1CCC(C2CCc3cc(F)c(OC)cc32)CC1 (stereo not drawn) [1-Butanoyl-4-(5-fluoro-6-methoxy-indan-1-yl)piperidine]
< 10 nM | CCC(C)C(=O)N1CCC(C2CCc3ccc(OC)cc32)CC1 (stereo not drawn) [4-(6-Methoxy-indan-1-yl)-1-(2-methylbutanoyl)piperidine]
< 10 nM | COc1ccc2c(c1)C(C1CCN(C(=O)N(C)C)CC1)CC2 (single isomer, unassigned; (-)) [(-)-N,N-Dimethyl-4-(6-methoxy-indan-1-yl)piperidine-1-carboxamide]
< 10 nM | COc1ccc2c(c1)C(C1CCN(C(=O)C3CC3)CC1)CCC2 (stereo not drawn) [1-(Cyclopropylcarbonyl)-4-(7-methoxy-tetralin-1-yl)piperidine]
< 10 nM | COc1ccc2c(c1)C(C1CCN(C(=O)CSC)CC1)CC2 (stereo not drawn) [4-(6-Methoxy-indan-1-yl)-1-(2-methylthioacetyl)piperidine]
< 10 nM | COc1ccc2c(c1)C(C1CCN(C(=O)c3cccs3)CC1)CC2 (stereo not drawn) [4-(6-Methoxy-indan-1-yl)-1-[(2-thienyl)carbonyl]piperidine]
< 10 nM | COCC(=O)N1CCC(C2CCc3ccc(OC)cc32)CC1 (stereo not drawn) [4-(6-Methoxy-indan-1-yl)-1-(2-methoxy-acetyl)piperidine]
10 to 100 nM | CCNC(=O)N1CCC(C2CCc3ccc(OCCCc4cccc(OC)c4)cc32)CC1 (stereo not drawn) [N-Ethyl-4-[6-[3-(3-methoxyphenyl)propyloxy]-indan-1-yl]piperidine-1-carboxamide]
< 10 nM | COc1ccc2c(c1)C(C1CCN(C(=O)c3ccco3)CC1)CC2 (stereo not drawn) [1-[(2-Furanyl)carbonyl]-4-(6-methoxy-indan-1-yl)-piperidine]
